# Patent US9415051B1, “Use of pemirolast” (priority 2015, dated 2016)
# Read-outs that look alike come from different tables or passages of the source.
# Tests used:
# [1] = Single and multiple-dose open safety and tolerability study, pharmacokinetics of pemirolast potassium tablets in humans; format: in vivo, human; conditions: for Cmax, mean / Cmax: multiple dose, healthy male subjects, N = 6; for Cmax: human, plasma
# Procedure: This study comprised 18 healthy male subjects, 18-45 years of age, and was a single and multiple-dose, open study assessing the safety and tolerability of pemirolast potassium tablets (10 mg, Ulgixal™ tablets) with the doses 10, 30 and 50 mg (containing 8.5, 25.5 and 42.5 mg pemirolast free acid, respectively) b.i.d. (6 subjects in each dose group). The subjects received a single dose on the first day, then b.i.d. for three days and a single dose on the fifth day. The study was performed at the Berzelius Clinical Research Center AB in Linköping, Sweden. All laboratory pharmacokinetic analyses were performed by Quintiles AB, Uppsala, Sweden. Pharmacokinetic calculations were performed by Pharm Assist Sweden AB, Uppsala, Sweden. Mean Cmax data after multiple dosing are shown in and Table 1, and mean plasma concentrations over time on Day 5 are shown in FIG. 1.
# [2] = Later pharmacokinetic studies in healthy volunteers, multiple doses b.i.d. for three and a half days; format: in vivo, human; conditions: for Cmax: human, plasma, oral, read-out: Actual Cmax
# Text: Later pharmacokinetic studies in healthy volunteers (7 to 8 in each group) have shown that actual Cmax values for various multiple doses (b.i.d. for three and a half days) are as follows: […]
# [3] = test system: airway hyperresponsiveness to mannitol challenge in asthma patients; assay: Clinical trial: mannitol challenge test (PD15 for mannitol) in asthma patients; format: in vivo, human; conditions: for Mannitol dose tolerated (PD15) at the placebo visit; reduction in AHR/BHR: n=4, FIG. 2
# Procedure: This study comprised male and female asthma patients (18 to 46 years of age) with a positive asthma test (as determined by a mannitol challenge test (vide infra) performed within 15 days prior to enrolment at the first screening visit, Visit 1).
# It was a double-blind, randomized, placebo-controlled, cross-over trial assessing the efficacy of orally administered single doses of placebo and 40 mg and 400 mg of pemirolast (immediate release tablets containing pemirolast sodium hemihydrate, as well as microcrystalline cellulose, mannitol, copovidone fine, croscarmellose sodium, anhydrous colloidal silica and magnesium stearate) in patients challenged with mannitol inhalation as described below.
# The patients were exposed to the different treatments at three separate hospital visits at least 2 (mean 6.8, median 6) days apart. The data reported in FIGS. 2 and 3 below represent the patients that received placebo treatment at the first visit (n=8) or placebo at the second visit (after 40 mg at the first visit (n=4) or after 400 mg at the first visit (n=4)).
# All doses were administered 3 hours before initiation of the mannitol challenge test to ensure peak plasma concentrations of pemirolast when the mannitol challenge was performed (blood samples for analysing plasma concentrations of pemirolast were collected 3 hours after drug administration).
# There were 5 visits during the trial: A screening visit (Visit 1, within 15 days before Visit 2), three visits for treatment with Investigational Medicinal Products (IMP; pemirolast 40 or 400 mg, or placebo) (Visit 2-4, spaced at least 2 days apart), and a final follow-up visit by telephone (Visit 5, at least 2, but less than 4 days after Visit 4 and within 30 days of Visit 2). […]
# [4] = Clinical trial: plasma pemirolast concentration by LC-MS/MS; format: in vivo; conditions: human, 40 and 400 mg single oral doses, asthma patients
# Procedure: All doses were administered 3 hours before initiation of the mannitol challenge test to ensure peak plasma concentrations of pemirolast when the mannitol challenge was performed (blood samples for analysing plasma concentrations of pemirolast were collected 3 hours after drug administration). All laboratory pharmacokinetic analyses were performed by Clinical Pharmacology, Karolinska University Hospital, Stockholm, Sweden. Briefly, the concentration of pemirolast in human plasma was determined by solid phase extraction and liquid chromatography followed by tandem mass spectrometric detection (LC-MS/MS). The analytical method, utilizing a 200 μL sample aliquot, has a calibration range of 4.00-4000 ng/mL, with a lower limit of quantification (LLOQ) set at 4.00 ng/mL.
# [5] = test system: asthma patients; assay: Clinical trial: FEV1 before and 3 hours after treatment; format: in vivo, human; conditions: 3 hours after an oral dose of 400 mg; 3.58±0.86 L before treatment; mean ±SD, n=22
# [6] = test system: 11β-PGF2α (mast cell biomarker prostaglandin D2 metabolite); assay: Clinical trial: urinary excretion of PGD2 metabolite 11β-PGF2α (EIA); format: in vivo, human; conditions: patients treated at least 3 days before with 40 mg or 400 mg, 4+4 patients, FIG. 3
# Procedure: A secondary endpoint in the study was to analyse changes in urinary excretion of a metabolite (11β-prostaglandin (PG) F2α) of the lung mast cell mediator/biomarker prostaglandin D2. 11β-PGF2α analysis was performed in unextracted urine samples using a validated enzyme immunoassays (EIA) kit from Cayman Chemical, Ann Arbor, Mich., USA (Item no 516521). […]
# [7] = test system: asthma patients; assay: Clinical trial: adverse events, vital signs and laboratory tests; format: in vivo, human; conditions: single oral doses of 40 mg and 400 mg
# [8] = test system: airway or bronchial hyperresponsiveness; conditions: 50 mg doses twice daily in humans (Kemp et al 1992); cited from earlier work
# [9] = Toxicokinetics of pemirolast in the dog, 7-day oral repeated dose; design: species or system dog (Beagles); conditions: Beagle, in vivo, 75 mg/kg daily oral, 7th day
# Text: There were no major differences in kinetics between males and females.
# [10] = dog, in vivo
# Procedure: The study, including all analyses and calculations, were performed by WIL Research, France, in compliance with Good Laboratory Practices (GLP).
# [11] = molecular target: hERG potassium channel (Homo sapiens, UniProt Q12809)
# Procedure: This study was performed by PhysioStim, France, a GLP compliant facility.
# The effects of pemirolast on hERG currents in HEK-293 cells stably expressing the hERG potassium channel were studied using patch-clamp technique.
# [12] = 10 mg pemirolast potassium (8.5 mg free acid) oral b.i.d.
# [13] = 30 mg pemirolast potassium (25.5 mg free acid) oral b.i.d.
# [14] = 50 mg pemirolast potassium (42.5 mg free acid) oral b.i.d.
# hERG potassium channel, sequence (Q12809 whole entry): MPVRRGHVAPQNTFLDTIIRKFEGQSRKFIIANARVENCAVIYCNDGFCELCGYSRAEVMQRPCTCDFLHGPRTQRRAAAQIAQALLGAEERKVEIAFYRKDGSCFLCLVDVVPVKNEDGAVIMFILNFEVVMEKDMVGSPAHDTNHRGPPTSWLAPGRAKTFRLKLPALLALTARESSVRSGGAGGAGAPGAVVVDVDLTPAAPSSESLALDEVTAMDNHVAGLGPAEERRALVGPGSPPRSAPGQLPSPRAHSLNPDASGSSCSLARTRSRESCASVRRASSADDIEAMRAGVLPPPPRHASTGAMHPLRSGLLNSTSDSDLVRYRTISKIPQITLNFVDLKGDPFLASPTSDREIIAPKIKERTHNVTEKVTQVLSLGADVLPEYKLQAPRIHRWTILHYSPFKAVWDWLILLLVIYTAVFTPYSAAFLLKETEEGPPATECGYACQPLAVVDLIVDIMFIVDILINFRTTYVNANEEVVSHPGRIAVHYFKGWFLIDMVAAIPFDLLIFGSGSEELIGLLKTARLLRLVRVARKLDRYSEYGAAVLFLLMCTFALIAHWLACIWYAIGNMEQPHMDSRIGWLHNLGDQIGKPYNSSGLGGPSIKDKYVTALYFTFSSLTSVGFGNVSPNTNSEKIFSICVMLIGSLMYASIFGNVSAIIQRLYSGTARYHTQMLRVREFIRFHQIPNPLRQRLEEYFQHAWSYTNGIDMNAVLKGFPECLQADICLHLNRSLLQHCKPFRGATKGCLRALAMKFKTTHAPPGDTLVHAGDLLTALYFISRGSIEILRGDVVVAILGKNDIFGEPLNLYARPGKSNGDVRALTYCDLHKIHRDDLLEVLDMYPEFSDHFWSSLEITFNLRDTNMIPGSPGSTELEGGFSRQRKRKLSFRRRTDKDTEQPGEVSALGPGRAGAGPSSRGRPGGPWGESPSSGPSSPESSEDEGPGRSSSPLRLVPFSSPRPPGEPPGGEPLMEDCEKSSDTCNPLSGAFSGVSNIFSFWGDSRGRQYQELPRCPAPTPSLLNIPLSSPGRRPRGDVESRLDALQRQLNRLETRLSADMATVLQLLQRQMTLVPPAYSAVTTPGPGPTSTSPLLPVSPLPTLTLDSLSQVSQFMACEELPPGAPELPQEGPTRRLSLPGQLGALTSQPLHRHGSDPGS
smiles,measurement,setting,value
Cc1cccn2c(=O)c(-c3nnn[nH]3)cnc12 [pemirolast],"Cmax, mean",[1]; [12],730 ng/mL
same,"Cmax, mean",[1]; [13],2040 ng/mL
same,"Cmax, mean",[1]; [14],3420 ng/mL
same,Predicted Cmax,"[1]; predicted for 125 mg, linear extrapolation from 8.5 mg multiple dose",10680 ng/mL
same,Predicted Cmax,"[1]; predicted for 125 mg, linear extrapolation from 25.5 mg multiple dose",9980 ng/mL
same,Predicted Cmax,"[1]; predicted for 125 mg, linear extrapolation from 42.5 mg multiple dose",10070 ng/mL
same,Predicted Cmax,"[1]; predicted for 200 mg, linear extrapolation from 8.5 mg multiple dose",17080 ng/mL
same,Predicted Cmax,"[1]; predicted for 200 mg, linear extrapolation from 25.5 mg multiple dose",15980 ng/mL
same,Predicted Cmax,"[1]; predicted for 200 mg, linear extrapolation from 42.5 mg multiple dose",16120 ng/mL
same,Predicted Cmax,"[1]; predicted for 400 mg, linear extrapolation from 8.5 mg multiple dose",34160 ng/mL
same,Predicted Cmax,"[1]; predicted for 400 mg, linear extrapolation from 25.5 mg multiple dose",31950 ng/mL
same,Predicted Cmax,"[1]; predicted for 400 mg, linear extrapolation from 42.5 mg multiple dose",32230 ng/mL
same,Safety and tolerability,"[2]; 80, 200 and 320 mg b.i.d. for three and a half days",safe and well-tolerated
same,Cmax,[2]; 80 mg b.i.d. for three and a half days,8840 ng/mL
same,Cmax,[2]; 200 mg b.i.d. for three and a half days,32500 ng/mL
same,Cmax,[2]; 320 mg b.i.d. for three and a half days,51000 ng/mL
same,Mannitol PD15,"[3]; 3 hour pre-treatment, single oral dose, asthma patients",increased
same,Mannitol dose tolerated (PD15) at the placebo visit; reduction in AHR/BHR,[3]; single 40 mg oral dose before the placebo treatment,not seen
same,Mannitol dose tolerated (PD15) at the placebo visit; reduction in AHR/BHR,[3]; single 400 mg oral dose at least 3 days before placebo/mannitol,tolerated a much higher dose of mannitol
same,half-life,[4],4 to 7 h
same,FEV1,[5],3.55 ± 0.84 L
same,"Urinary levels of the PGD2 biomarker (11β-PGF2α), 40 mg versus 400 mg",[6],did not differ
same,"Adverse events, vital signs, physical examination, laboratory tests",[7],no serious adverse events
same,Effect on airway or bronchial hyperresponsiveness,[8],no effect whatsoever
Cc1cccn2c(=O)c(-c3nnn[nH]3)cnc12 [pemirolast potassium],Cmax,[1]; [12],730 ng/mL
same,Cmax,[1]; [13],2040 ng/mL
same,Cmax,[1]; [14],3420 ng/mL
same,Cmax,[9]; female dogs (n = 3),150000 ng/mL
same,Cmax,[9]; male dogs (n = 3),168000 ng/mL
same,Safe chronic dose,[10],75 mg/kg daily
same,Decrease of hERG tail current amplitude,[11]; 2.7 μg/mL,5.4%
same,Decrease of hERG tail current amplitude,[11]; 8 μg/mL,10.2%
same,Decrease of hERG tail current amplitude,[11]; 26.6 μg/mL,14.1%
same,Decrease of hERG tail current amplitude,[11]; 79.9 μg/mL,19.0%
